Assay results taken from PMC10385442, “Galactoside-Based Molecule Enhanced Antimicrobial Activity through Acyl Moiety Incorporation: Synthesis and In Silico Exploration for Therapeutic Target” (Pharmaceuticals, 2023).
Values after ≈ are worked out from the molar mass of the structure shown. Read-outs that look alike come from different tables or passages of the source.

What was measured:
[1] = test system: P. aeruginosa (G − ve) (ATCC 9027); test: Disc diffusion antibacterial susceptibility; assay type: cell-based; conditions: for Diameter of Inhibition Zones: P. aeruginosa (ATCC 9027), triplicate, NI = No inhibition; for antibacterial activity category: P. aeruginosa, category by zone
Text: (§1) The methodology employed to determine the antibacterial properties of the synthesized compounds (each compound dissolved in dimethyl sulfoxide 7% DMSO) involved the use of the disc diffusion approach. This was done following a previously described method with slight modifications. First, an inoculum was obtained from a bacterial colony and diluted to a concentration of 0.5 McFarland standard in sterile saltwater containing 0.9% NaCl. The suspension was then transferred to a sterile tube and allowed to settle for 5 min, after which the top homogeneous solution was transferred to another sterile tube. The concentration of the solution was adjusted to a 0.5 McFarland turbidity standard to obtain an inoculum of approximately 10^6 CFU/mL.

[2] = test system: S. aureus (G + ve) (BTCC 19); test: Disc diffusion antibacterial susceptibility; assay type: cell-based; conditions: for Diameter of Inhibition Zones: S. aureus (BTCC 19), triplicate, NI = No inhibition
Text: as §1

[3] = test system: Aspergillus niger (ATCC 16404); test: Antifungal poisoned food method, mycelial growth; assay type: cell-based; conditions: NI: no inhibition
Method: (§2) The food poisoning method with potato dextrose agar (PDA) as the culture medium was used to test the antifungal action. Twenty milliliters of 45 °C sterilized, melted potato dextrose agar medium (PDA) was placed into sterile 70-mm glass Petri plates. The “poisoned food” method was used to determine how the synthesized MDGP (1) derivatives affected the growth of the fungal mycelium.

[4] = test system: Aspergillus flavus (ATCC 204304); test: Antifungal poisoned food method, mycelial growth; assay type: cell-based; conditions: NI: no inhibition
Method: as §2

[5] = test system: S. typhi (G − ve) (AE 14612); test: Disc diffusion antibacterial susceptibility; assay type: cell-based, Salmonella typhi; conditions: S. typhi (AE 14612), triplicate, NI = No inhibition
Text: as §1

[6] = test system: E. coli (G − ve) (ATCC 8739); test: Disc diffusion antibacterial susceptibility; assay type: cell-based, Escherichia coli; conditions: E. coli (ATCC 8739), triplicate, NI = No inhibition
Text: as §1

[7] = test system: B. subtilis (G + ve) (ATCC 6633); test: Disc diffusion antibacterial susceptibility; assay type: cell-based, Bacillus subtilis; conditions: B. subtilis (ATCC 6633), triplicate, NI = No inhibition
Text: as §1

[8] = test system: P. aeruginosa (ATCC 9027); test: MIC and MBC by broth dilution; assay type: cell-based
Method: (§3) To determine the minimum inhibitory concentration (MIC) of the synthesized compounds against the tested bacterial strains, a dilution method was employed. The objective was to establish the lowest concentration of the compound at which approximately 90% of bacterial growth was inhibited. To this end, a bacterial suspension of 300 μL at a concentration of 0.5 McFarland standard was seeded into individual tubes of 9 mL nutrient broth, with each tube receiving 1 mL of different concentrations of the synthesized compound at twofold serial dilutions and 7% DMSO, which served as the negative control. The tubes were then kept at 37 °C for a whole night. The MIC and MBC values were determined by using the naked eye to compare the turbidity of the tube to that of a reference medium with a 0.5 McFarland value.

[9] = test system: B. cereus (BTCC 19); test: MIC and MBC by broth dilution; assay type: cell-based; conditions: for MBC: eradicates 99.9% of inoculum
Method: as §3

[10] = test system: E. coli (ATCC 8739); test: MIC and MBC by broth dilution; assay type: cell-based, Escherichia coli; conditions: for MBC: eradicates 99.9% of inoculum
Method: as §3

[11] = test system: S. typhi (AE 14612); test: MIC and MBC by broth dilution; assay type: cell-based, Salmonella typhi
Method: as §3

[12] = test system: B. subtilis (ATCC 6633); test: MIC and MBC by broth dilution; assay type: cell-based, Bacillus subtilis
Method: as §3

[13] = Pseudomonas aeruginosa, ATCC9027, eradicates 99.9% of inoculum, read-out: MBC
[14] = Pseudomonas aeruginosa, ATCC9027, read-out: MIC
[15] = Escherichia coli, ATCC8739, E. coli, read-out: MBC
[16] = Escherichia coli, ATCC8739, E. coli, read-out: MIC
[17] = S. typhi, eradicates 99.9% of inoculum
[18] = Bacillus subtilis, ATCC6633, eradicates 99.9% of inoculum, read-out: MBC
[19] = Bacillus subtilis, ATCC6633, read-out: MIC

Compound: CO[C@@H]1O[C@H](COC(=O)c2ccccc2Br)[C@H](O)[C@H](O)[C@H]1O [Compound 2, Methyl 6-O-(2-bromobenzoyl)-β-D-galactopyranoside]
- Diameter of Inhibition Zones [1]: * 15.00 ± 0.1 mm
- antibacterial activity category [1]: high activity (high activity at 15 mm or more)
- Diameter of Inhibition Zones [2]: 10.50 ± 0.2 mm
- % Inhibition of Fungal Mycelial Growth [3]: * 72.88 ± 1.0%
- % Inhibition of Fungal Mycelial Growth [4]: * 85.66 ± 0.9%
- Diameter of Inhibition Zones [5]: 11.25 ± 0.2 mm

Compound: CO[C@@H]1O[C@H](COC(=O)c2ccccc2Br)[C@H](OC(=O)c2ccc(Cl)cc2)[C@H](OC(=O)c2ccc(Cl)cc2)[C@H]1OC(=O)c1ccc(Cl)cc1 [Compound 6, Methyl 6-O-(2-bromobenzoyl)-2,3,4-tri-O-(4-chlorobenzoyl)-β-D-galactopyranoside]
- Diameter of Inhibition Zones [6]: 11.25 ± 0.2 mm
- Diameter of Inhibition Zones [7]: * 12.75 ± 0.1 mm
- MIC [8]: 8000 µg/mL (≈ 10.1 mM)
- MBC [8, 13]: 16000 µg/mL (≈ 20.2 mM)
- MIC [8, 14]: 8000 µg/mL (≈ 10.1 mM)
- MBC ([8]; eradicates 99.9% of inoculum): 16000 µg/mL (≈ 20.2 mM)
- MIC [9]: 2000 µg/mL (≈ 2.52 mM)
- MBC ([9]; Bacillus cereus, read-out: MBC): 8000 µg/mL (≈ 10.1 mM)
- MIC ([9]; Bacillus cereus, read-out: MIC): 2000 µg/mL (≈ 2.52 mM)
- MBC [9]: 8000 µg/mL (≈ 10.1 mM)
- Diameter of Inhibition Zones [1]: 11.50 ± 0.1 mm
- Diameter of Inhibition Zones [2]: 11.50 ± 0.3 mm
- % Inhibition of Fungal Mycelial Growth [3]: * 78.81 ± 1.0%
- % Inhibition of Fungal Mycelial Growth [4]: * 81.97 ± 1.2%
- MIC ([10]; E. coli): 1000 µg/mL (≈ 1.26 mM)
- MBC ([10]; E. coli): 8000 µg/mL (≈ 10.1 mM)
- MBC [10, 15]: 16000 µg/mL (≈ 20.2 mM)
- MIC [10, 16]: 1000 µg/mL (≈ 1.26 mM)
- MIC ([11]; S. typhi): 2000 µg/mL (≈ 2.52 mM)
- MBC [11, 17]: 8000 µg/mL (≈ 10.1 mM)
- MBC ([11]; Salmonella enterica, TYPHI): 8000 µg/mL (≈ 10.1 mM)
- MIC ([11]; Salmonella enterica, TYPHI): 2000 µg/mL (≈ 2.52 mM)
- MIC [12]: 500 µg/mL (≈ 0.631 mM)
- MBC [12, 18]: 16000 µg/mL (≈ 20.2 mM)
- MIC [12, 19]: 500 µg/mL (≈ 0.631 mM)
- MBC ([12]; eradicates 99.9% of inoculum): 16000 µg/mL (≈ 20.2 mM)
- Diameter of Inhibition Zones [5]: * 13.00 ± 0.3 mm

Compound: CO[C@@H]1O[C@H](COC(=O)c2ccccc2Br)[C@H](OC(=O)c2ccc(C(C)(C)C)cc2)[C@H](OC(=O)c2ccc(C(C)(C)C)cc2)[C@H]1OC(=O)c1ccc(C(C)(C)C)cc1 [Compound 7, Methyl 6-O-(2-bromobenzoyl)-2,3,4-tri-O-(4-t-butylbenzoyl)-β-D-galactopyranoside]
- Diameter of Inhibition Zones [6]: 8.50 ± 0.1 mm
- Diameter of Inhibition Zones [7]: 7.75 ± 0.1 mm
- Diameter of Inhibition Zones [1]: 7.50 ± 0.3 mm
- Diameter of Inhibition Zones [5]: 9.00 ± 0.3 mm

Compound: CC[C@H]1OC(=O)[C@H](C)[C@@H](O[C@H]2C[C@@](C)(OC)[C@@H](O)[C@H](C)O2)[C@H](C)[C@@H](O[C@@H]2O[C@H](C)C[C@H](N(C)C)[C@H]2O)[C@](C)(O)C[C@@H](C)CN(C)[C@H](C)[C@@H](O)[C@]1(C)O [Azithromycin, reference compound]
- Diameter of Inhibition Zones [6]: ** 17.25 ± 0.2 mm
- Diameter of Inhibition Zones [7]: ** 18.25 ± 0.2 mm
- Diameter of Inhibition Zones [1]: ** 18.5 ± 0.3 mm
- Diameter of Inhibition Zones [2]: ** 17.50 ± 0.2 mm
- Diameter of Inhibition Zones [5]: ** 18.0 ± 0.1 mm

Compound: C[C@@H]1[C@H](O)[C@@H](C)/C=C/C=C/CC/C=C/C=C/C=C/C=C/C(O[C@H]2O[C@H](C)[C@@H](O)[C@H](N)[C@@H]2O)CC2O[C@](O)(CC(O)C(O)CCC(O)CC(O)CC(O)CC(=O)O[C@H]1C)CC(O)C2C(=O)O (stereo partly drawn) [Nystatin, reference compound]
- % Inhibition of Fungal Mycelial Growth [3]: ** 66.7 ± 1.1%
- % Inhibition of Fungal Mycelial Growth [4]: ** 65.2 ± 1.2%

Compound: CO[C@@H]1O[C@H](COC(=O)c2ccccc2Br)[C@H](OC(=O)c2cccc(Cl)c2)[C@H](OC(=O)c2cccc(Cl)c2)[C@H]1OC(=O)c1cccc(Cl)c1 [Compound 5, Methyl 6-O-(2-bromobenzoyl)-2,3,4-tri-O-(3-chlorobenzoyl)-β-D-galactopyranoside]
- Diameter of Inhibition Zones [1]: * 18.25 ± 0.3 mm
- antibacterial activity category [1]: high activity (high activity at 15 mm or more)
- % Inhibition of Fungal Mycelial Growth [3]: 48.73 ± 1.1%
- % Inhibition of Fungal Mycelial Growth [4]: * 81.97 ± 1.0%

Compound: CCCCCCCCCCCC(=O)O[C@H]1[C@@H](OC(=O)CCCCCCCCCCC)[C@@H](COC(=O)c2ccccc2Br)O[C@@H](OC)[C@@H]1OC(=O)CCCCCCCCCCC [Compound 3, Methyl 6-O-(2-bromobenzoyl)-2,3,4-tri-O-lauroyl-β-D-galactopyranoside]
- Diameter of Inhibition Zones [6]: 11.00 ± 0.2 mm
- Diameter of Inhibition Zones [7]: * 13.00 ± 0.1 mm
- MBC [8, 13]: 16000 µg/mL (≈ 17.3 mM)
- MIC [8, 14]: 250 µg/mL (≈ 0.271 mM)
- MBC ([8]; eradicates 99.9% of inoculum): 16000 µg/mL (≈ 17.3 mM)
- MIC [9]: 8000 µg/mL (≈ 8.66 mM)
- MBC ([9]; Bacillus cereus, read-out: MBC): 8000 µg/mL (≈ 8.66 mM)
- MIC ([9]; Bacillus cereus, read-out: MIC): 8000 µg/mL (≈ 8.66 mM)
- MBC [9]: 8000 µg/mL (≈ 8.66 mM)
- Diameter of Inhibition Zones [1]: 11.25 ± 0.3 mm
- Diameter of Inhibition Zones [2]: * 15.50 ± 0.3 mm
- antibacterial activity category ([2]; category by zone): high activity (high activity at 15 mm or more)
- % Inhibition of Fungal Mycelial Growth [3]: * 64.83 ± 1.1%
- % Inhibition of Fungal Mycelial Growth [4]: * 84.02 ± 1.3%
- MIC ([10]; E. coli): 2000 µg/mL (≈ 2.16 mM)
- MBC ([10]; E. coli): 16000 µg/mL (≈ 17.3 mM)
- MBC [10, 15]: 16000 µg/mL (≈ 17.3 mM)
- MIC [10, 16]: 2000 µg/mL (≈ 2.16 mM)
- MBC [11, 17]: 8000 µg/mL (≈ 8.66 mM)
- MBC ([11]; Salmonella enterica, TYPHI): 8000 µg/mL (≈ 8.66 mM)
- MIC ([11]; Salmonella enterica, TYPHI): 125 µg/mL (≈ 0.135 mM)
- MIC [12]: 8000 µg/mL (≈ 8.66 mM)
- MBC [12, 18]: 16000 µg/mL (≈ 17.3 mM)
- MIC [12, 19]: 8000 µg/mL (≈ 8.66 mM)
- MBC ([12]; eradicates 99.9% of inoculum): 16000 µg/mL (≈ 17.3 mM)
- Diameter of Inhibition Zones [5]: * 12.25 ± 0.1 mm

Compound: CCCCCCCCCCCCCC(=O)O[C@H]1[C@@H](OC(=O)CCCCCCCCCCCCC)[C@@H](COC(=O)c2ccccc2Br)O[C@@H](OC)[C@@H]1OC(=O)CCCCCCCCCCCCC [Compound 4, Methyl 6-O-(2-bromobenzoyl)-2,3,4-tri-O-myristoyl-β-D-galactopyranoside]
- % Inhibition of Fungal Mycelial Growth [3]: * 71.19 ± 1.0%
